The source of these data is patent publication US11963961B2, “Combination therapy comprising an ACC inhibitor” (Gilead Sciences, Inc., priority 2017, dated 2024).

The structures appear in SMILES notation.

Data set [1] deals with pro-fibrotic genes colla1 and timp1. The data set can be described thus: Hepatic mRNA expression by qPCR, 15-day FFD mouse study. Format: in vivo. Conditions: Compound 2 5 mg/kg; fenofibrate 50 mg/kg; QD PO, 15 days. The method, then:
(§1) Purpose: The purpose of this study was to assess the effect of Compound 2 on plasma and liver triglycerides (TG) and molecular biology of liver after 15 days of oral administration (“PO”) of Compound 2 (5 mg/kg QD), fenofibrate (25 mg/kg and 50 mg/kg QD), or the combination (Compound 2 (5 mg/kg, QD)+fenofibrate (50 mg/kg, QD)) in mice fed a diet high in fat, cholesterol, and fructose (the fast-food diet, FFD (Research Diet D12079B)). Mice enrolled in this study were fed a FFD for approximately 9 months prior to study start. Primary endpoints were plasma TG, liver TG, liver ketone bodies, plasma liver enzymes, hepatic oxidative stress and hepatic gene expression of liver X receptorα (LXRα) and PPARα targets, and profibrotic markers by qPCR.
(In general: In qPCR the cycle at which signal appears reflects the starting amount.)

Data set [2] relates to fast food diet (FFD) male C57BL/6 mouse. Briefly: 15-day once daily oral Compound 2 and fenofibrate, fast food diet model of fatty liver. Format: in vivo. Conditions: 15 days. The method, then: Once Daily Oral Administration of Compound 2 and Fenofibrate: 15-Day Pharmacology Study Using the Fast Food Diet Model of Fatty Liver in the Male C57BL/6 Mouse
as §1

Data set [3] has as its system subjects with steatosis and F1-F3 fibrosis / NASH. Conditions: one subject on Compound 1 20 mg given 145 mg fenofibrate after grade 3 hypertriglyceridemia at week 1. The procedure: Ten subjects with steatosis (MRI-PDFF≥10%) and F1-F3 fibrosis (MRE≥2.88 kPa but non-cirrhotic based on FibroText <0.75, historical imaging and liver biopsy) were treated 20 mg Compound 1 for 12 weeks.
Four of the ten subjects were on fish oil or fenofibrate at baseline and continued the concomitant medication for the duration of the study. Throughout the study subjects were monitored for safety (adverse events, laboratory abnormalities), liver biochemistry, serum markers of fibrosis (ELF and its components TIMP-1, hyaluronic acid, PIII-NP) and cell death (CK18 M30 and M65), liver stiffness (MRE) and fat (MRI-PDFF) and the effect on de novo lipogensis was assessed using heavy water labeling.
The four subjects were analyzed in conjunction with eight subjects from the study described in Example 1. These twelve subjects were on fish oil or fibrates for at least six weeks of the study and included those who were on fish oil or fibrates at baseline or who had graded hypertriglyceridemia and were given fish oil or fibrates during the study.

Data set [4] has as its system fast food diet (FFD) male C57B1/6 mouse. Briefly: 14-day pharmacology study of Compound 2 and fenofibrate in chow, fast food diet model of fatty liver. Format: in vivo. Particulars: Compound 2 10 mg/kg QD PO, two weeks of dosing. The procedure:
Once Daily Compound 2 and Fenofibrate Administered in Chow: 14-Day Pharmacology Study Using the Fast Food Diet Model of Fatty Liver in the Male C57B1/6 Mouse
Purpose: The purpose of this study was to assess the effect of Compound 2 on plasma and liver TG and molecular biology of liver after 10 to 14 days of Compound 2 administered orally (10 mg/kg QD), or fenofibrate (0.1% administration in chow), or the combination in a mice fed a diet high in fat, cholesterol, and fructose (the fast-food diet, FFD). Mice enrolled in this study were fed a fast food diet for approximately 9 months prior to study start. Primary endpoints were plasma triglycerides, liver triglycerides, liver cholesterol, and hepatic gene expression of liver X receptorα (LXRα), and sterol response element binding protein-1c (SREBP1c) target genes by qPCR.

Take `CC(C)OC(=O)C(C)(C)Oc1ccc(C(=O)c2ccc(Cl)cc2)cc1` [fenofibrate, Fenofibrate, reference compound]: in data set [1], the “Hepatic expression of pro-fibrotic genes” value is reported as “reduced”. Further, the “Effect on the above-mentioned parameters (plasma TG, PPARα and LXRα target genes, ALT/AST, liver TG, βOHB, malondialdehyde)” value in data set [2] (fenofibrate alone, both 25 and 50 mg/kg QD PO) is “modest-to-no effect”. Further, in data set [3], the “All monitored TG related measurements (total TG, APOB48, VLDL-P, APOC3)” value is “improved to less than baseline”.

As for `COc1ccccc1[C@H](Cn1c(=O)n(C(C)(C)C(=O)O)c(=O)c2c(C)c(-c3ncco3)sc21)O[C@H]1CC[C@@H](O)CC1` [Compound 2, 2-[1-[(2R)-2-[(4-hydroxycyclohexyl)oxy]-2-(2-methoxyphenyl)ethyl]-5-methyl-6-(1,3-oxazol-2-yl)-2,4-dioxo-1H,2H,3H,4H-thieno[2,3-d]pyrimidin-3-yl]-2-methylpropanoic acid], the “Plasma triglycerides, increase relative to vehicle-treated animals” value in data set [4] is reported as 15%. In addition, the “Plasma TG, increase relative to vehicle-treated animals” value in data set [2] (Compound 2 5 mg/kg QD PO, 2 h post dose, ad lib fed) came to 29%.
